In patent publication US8173638B2 (Boehringer Ingelheim International GmbH, priority 2006, dated 2012):

Each molecule was assayed against T1, human CB2R (Homo sapiens, UniProt P34972) (assay: CB2R mediated modulation of cAMP synthesis). Conditions: found through the use of the described assays (CB2 agonists); qualitative statement.
T1 construct: host or cells: CHO cells
T1 sequence (P34972 whole entry): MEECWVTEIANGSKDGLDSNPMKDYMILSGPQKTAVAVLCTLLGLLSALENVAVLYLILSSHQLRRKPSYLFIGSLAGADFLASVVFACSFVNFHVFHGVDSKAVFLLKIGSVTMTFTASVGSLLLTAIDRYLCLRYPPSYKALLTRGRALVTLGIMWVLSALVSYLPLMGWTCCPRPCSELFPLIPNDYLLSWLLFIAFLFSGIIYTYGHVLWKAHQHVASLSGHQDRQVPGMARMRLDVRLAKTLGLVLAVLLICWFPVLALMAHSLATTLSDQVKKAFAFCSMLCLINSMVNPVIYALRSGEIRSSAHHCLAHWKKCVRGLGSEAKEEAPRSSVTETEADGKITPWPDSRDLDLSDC
Type: cell-based
In short: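 Forskolin (10 uM)-driven cAMP in human CB2R-expressing CHO cells, read with DiscoverX-XS kit after 30 min compound exposure at 37 °C, 1 mM IBMX, 0.25% BSA. 100% defined as forskolin cAMP relative to 1 uM CP55940 inhibition. Agonist EC50 via four-parameter logistic model.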
For `CC(=O)NC1CCC(C(=O)N2CCCN(C(=O)Nc3cc(C(C)(C)C)on3)CC2)CC1` (stereo not shown) [4-(4-Acetylamino-cyclohexanecarbonyl)-[1,4]diazepane-1-carboxylic acid (5-tert-butyl-isoxazol-3-yl)-amide], the agonistic activity was “agonistic activity”. For `Cc1nc(NC(=O)N2CCCN(C(=O)C3CCOCC3)CC2)sc1C` [4-(Tetrahydro-pyran-4-carbonyl)-[1,4]diazepane-1-carboxylic acid (4,5-dimethyl-thiazol-2-yl)-amide], the agonistic activity was “agonistic activity”. With `CC(C)c1ccc(NC(=O)N2CCCN(C(=O)c3ccc(Cl)cc3)CC2)cc1` [4-(4-Chloro-benzoyl)-[1,4]diazepane-1-carboxylic acid (4-isopropyl-phenyl)-amide] the agonistic activity was “agonistic activity”. For `O=C(Nc1nc(-c2ccccc2)cs1)N1CCCN(C(=O)C2CCOCC2)CC1` [4-(Tetrahydro-pyran-4-carbonyl)-[1,4]diazepane-1-carboxylic acid (4-phenyl-thiazol-2-yl)-amide], the agonistic activity was “agonistic activity”. With `CS(=O)(=O)c1ccc(NC(=O)N2CCCN(C(=O)CC3CCCC3)CC2)cc1` [4-(2-Cyclopentyl-acetyl)-[1,4]diazepane-1-carboxylic acid (4-methanesulfonyl-phenyl)-amide] the agonistic activity was “agonistic activity”. With `O=C(CC1CCCC1)N1CCCN(C(=O)Nc2ccc(SC(F)(F)F)cc2)CC1` [4-(2-cyclopentyl-acetyl)-[1,4]diazepane-1-carboxylic acid (4-trifluoromethylsulfanyl-phenyl)-amide] the agonistic activity was “agonistic activity”. With `O=C(Nc1ccc(C(F)(F)F)cc1)N1CCCN(C(=O)c2ccc(F)cc2)CC1` [4-(4-Fluoro-benzoyl)-[1,4]diazepane-1-carboxylic acid (4-trifluoromethyl-phenyl)-amide] the agonistic activity was “agonistic activity”.
